A short description of data set [1]: Uninfected host cell cytotoxicity counter screen. The class given is cell-based. The note with it: human. The procedure:
Uninfected host cell cytotoxicity counter screen: HeLa-ACE2 cells were maintained as described for the infection assay and seeded in the assay-ready plates at 400 cells/well. Plates were incubated for 24 hours at 37° C. 5% CO2. To assess cell viability, the Image-iT DEAD green reagent was used according to manufacturer instructions. Cells were fixed with 4% paraformaldehyde, and counterstained with DAPI. Fixed cells are imaged as described above.
Viral replication data analysis: Data from the primary screen and the host cell cytotoxicity screen are normalized to neutral (DMSO) […] inhibitor controls (2.5 μM Remdesivir for antiviral effect and 10 μM puromycin for infected host cell toxicity). For the uninfected host cell cytotoxicity counter-screen 40 μM puromycin is used as the positive control. Concentration response experiments will be tested in triplicate.
Background: Counterscreens check selectivity or assay interference.

For data set [2], the system named is SARS-CoV-2 (strain USA-WA1/2020). The experiment in a line: microbe, parasite or virus in culture. The class given is cell-based.
The test system of the next data set is HeLa-ACE2 cells. The experiment in a line: cells. Type of data set: cell-based. The note with it: Table 2, total cell count in infected plates.
For data set [3], the target named is SARS-CoV-2 main protease (Mpro) (Severe acute respiratory syndrome coronavirus 2, UniProt P0DTD1). The experiment in a line: biochemical.
The mark [4] stands for this setting: Severe acute respiratory syndrome coronavirus 2, HeLa-ACE2, read-out: CoV-2 HeLa EC50, Table 2, SARS-CoV-2 infected HeLa-ACE2 cells.
[5] abbreviates: Severe acute respiratory syndrome coronavirus 2, HeLa, Table 3, read-out: CoV-2 HeLa EC50.
Where [6] appears, read: Table 3, select example compounds against mpro, read-out: Enzyme IC50.
Where [7] appears, read: Severe acute respiratory syndrome coronavirus 2, Table 2, SARS-CoV-2 infected HeLa-ACE2 cells, read-out: CoV-2 HeLa EC50.

Each structure is given as a SMILES string. Read-outs that look alike come from different tables or passages of the source. A value given as a limit tells only on which side of the number the result lay.

In general, CC50 refers to the concentration giving 50% cytotoxicity. A word on the EC50: it is the concentration at which the effect is half-maximal. The term IC50 denotes the concentration at which inhibition is half-maximal.

`Nc1ncc(C(=O)N2CCN(C(c3ccccc3)c3ccccc3)CC2)cn1` [MKP-1322, 5-[4-(diphenylmethyl)piperazine-1-carbonyl]pyrimidin-2-amine]: the CC50 at 24 h in data set [1] is above 39.8 µM. Further, the EC50 (in data set [2] (setting [4]); in the data set on HeLa-ACE2 cells) was above 9.61 µM throughout.

For `O=C(c1cncc2cc[nH]c12)N1CCC(=C(c2cccc(F)c2)c2cccc(F)c2)CC1` [MKP-1355, (4-(bis(3-fluorophenyl)methylene)piperidin-1-yl)(1H-pyrrolo[3,2-c]pyridin-7-yl)methanone], the EC50 in data set [2] (setting [5]) was determined as 0.094 µM. Besides, the IC50 in data set [3] (Table 2, read-out: Enzyme IC50) stood at 0.028 µM; in data set [3] (setting [6]) it was 0.012 µM.

As for `Cc1cncc(C(=O)N2CC3CC(C2)N3C(c2ccccc2)c2ccccc2)c1` [AA-614, (6-benzhydryl-3,6-diazabicyclo[3.1.1]heptan-3-yl)(5-methylpyridin-3-yl)methanone], in data set [1] (Table 2, uninfected cells, 24 hours, read-out: Uninfected HeLa-ACE2 CC50), the CC50 at 24 h was above 39.8 µM. Further, the EC50 (in data set [2] (setting [4]); in the data set with HeLa-ACE2 cells) was above 9.61 µM each time.

In the case of `O=C(c1cnc(Cl)c(Cl)c1)N1CCN(C(c2ccccc2)c2ccccc2)CC1` [AA-608, (4-benzhydrylpiperazin-1-yl)(5,6-dichloropyridin-3-yl)methanone], the CC50 at 24 h in data set [1] is above 39.8 µM. The EC50 in data set [2] (setting [7]) was determined as 1.74 µM; with HeLa-ACE2 cells, 0.863 µM.

Turning to `Cc1cncc(CN2CCN(C(c3ccccc3)c3ccccc3)CC2=O)c1` [AA-646, 4-benzhydryl-1-((5-methylpyridin-3-yl)methyl)piperazin-2-one], the EC50 in data set [2] (setting [7]) stood at 5.2 µM. In data set [3] (Table 2, read-out: Enzyme IC50), the IC50 was determined as 6.1 µM.

Regarding `O=C(c1ccc(Cl)nc1)N1CCN(C2c3ccccc3CCc3ccccc32)CC1` [ZS-337, (6-chloro-3-pyridyl)-[4-(2-tricyclo[9.4.0.03,8]pentadeca-1(11),3(8),4,6,12,14-hexaenyl)piperazin-1-yl]methanone], in data set [1], the CC50 at 24 h was above 39.8 µM. Also, the EC50 (in data set [2] (setting [4]); in the data set on HeLa-ACE2 cells) was above 9.61 µM throughout.

The molecule `O=C(c1cncs1)N1CCN(C(c2ccccc2)c2ccccc2)CC1` [MKP-1318, 1-(diphenylmethyl)-4-(1,3-thiazole-5-carbonyl)piperazine] registered a CC50 at 24 h in data set [1] above 39.8 µM. In addition, the EC50 (in data set [2] (setting [4]); with HeLa-ACE2 cells) was above 9.61 µM in each case.

For the molecule `O=C(c1cncc2cc[nH]c12)N1CCN(C(c2cccc(F)c2)c2cccc(F)c2)CC1` [MKP-1371, (4-(bis(3-fluorophenyl)methyl)piperazin-1-yl)(1H-pyrrolo[3,2-c]pyridin-7-yl)methanone], the EC50 in data set [2] (setting [5]) is 0.047 µM. For the same molecule, the IC50 in data set [3] (Table 2, read-out: Enzyme IC50) came out at 0.025 µM; in data set [3] (setting [6]), 0.013 µM.

In turn, `O=C(c1cnc2ccccc2c1)N1CCN(C(c2ccccc2)c2ccccc2)CC1` [MKP-1167, 3-[4-(diphenylmethyl)piperazine-1-carbonyl]quinoline] gave a CC50 at 24 h in data set [1] above 39.8 µM. The EC50 (in data set [2] (setting [4]); in the data set on HeLa-ACE2 cells) was above 9.61 µM in each case.

Consider `Cc1cncc(CN2CCN(C(c3ccccc3)c3ccccc3)CC2)c1` [MKP-1307, 1-(diphenylmethyl)-4-[(5-methylpyridin-3-yl)methyl]piperazine], for which, in data set [1], the CC50 at 24 h was above 39.8 µM. The EC50 (in data set [2] (setting [4]); in the data set with HeLa-ACE2 cells) was above 9.61 µM in each case.

Turning to `O=C(c1cncc2cn[nH]c12)N1CCC(=C2c3ccccc3CS(=O)(=O)c3ccccc32)CC1` [NZ-821, [4-(5,5-dioxo-6H-benzo[c][1]benzothiepin-11-ylidene)-1-piperidyl]-(1H-pyrazolo[4,3-c]pyridin-7-yl)methanone], the EC50 in data set [2] (setting [5]) came out at 0.023 µM. Moreover, the IC50 in data set [3] (Table 2, read-out: Enzyme IC50) amounted to 0.044 µM; in data set [3] (setting [6]), 0.044 µM.

In data set [1], `O=C(O)c1cncc(C(=O)N2CCN(C3c4ccccc4CCc4ccccc43)CC2)c1` [ZS-335, 5-[4-(2-tricyclo[9.4.0.03,8]pentadeca-1(11),3(8),4,6,12,14-hexaenyl)piperazine-1-carbonyl]pyridine-3-carboxylic acid] displayed a CC50 at 24 h above 39.8 µM. For the same molecule, the EC50 (in data set [2] (setting [4]); with HeLa-ACE2 cells) was above 9.61 µM in each case.

`CS(=O)(=O)c1ccccc1C(c1cccc(F)c1)N1CCN(C(=O)c2cncc3cc[nH]c23)CC1` (stereo not shown) [NZ-816, [4-[(3-fluorophenyl)-(2-methylsulfonylphenyl)methyl]piperazin-1-yl]-(1H-pyrrolo[3,2-c]pyridin-7-yl)methanone]: in data set [2] (setting [5]), the EC50 turned out to be 0.04 µM. Further, the IC50 in data set [3] (Table 2, read-out: Enzyme IC50) stood at 0.03 µM; in data set [3] (setting [6]), 0.017 µM.

In turn, `O=C1CC(CC(=O)N2CCN(C3c4ccccc4CS(=O)(=O)c4ccccc43)CC2)c2ccccc2N1` (stereo not shown) [NZ-811, 4-[2-[4-(5,5-dioxo-6,11-dihydrobenzo[c][1]benzothiepin-11-yl)piperazin-1-yl]-2-oxo-ethyl]-3,4-dihydro-1H-quinolin-2-one] registered a CC50 at 24 h in data set [1] above 39.8 µM. The EC50 (in data set [2] (setting [4]); with HeLa-ACE2 cells) was above 9.61 µM each time.

For the molecule `O=C(c1cncc2cn[nH]c12)N1CCN(C2c3ccccc3CS(=O)(=O)c3ccccc32)CC1` (stereo not shown) [NZ-822, [4-(5,5-dioxo-6,11-dihydrobenzo[c][1]benzothiepin-11-yl)piperazin-1-yl]-(1H-pyrazolo[4,3-c]pyridin-7-yl)methanone], the EC50 in data set [2] (setting [5]) was determined as 0.089 µM. Moreover, in data set [3] (setting [6]), the IC50 was 0.054 µM.

`Cc1ccc(C(=O)N2CCN(C(c3ccccc3)c3ccccc3)CC2)cn1` [AA-612, (4-benzhydrylpiperazin-1-yl)(6-methylpyridin-3-yl)methanone]: the CC50 at 24 h in data set [1] is above 39.8 µM. Besides, the EC50 is 1.74 µM in data set [2] (setting [7]) and 0.863 µM with HeLa-ACE2 cells.

In the case of `O=Cc1ccccc1C(=O)N1CCC(C(O)(c2ccccc2)c2ccccc2)CC1` [NZ-791, 2-[4-(hydroxydiphenylmethyl)piperidine-1-carbonyl]benzaldehyde], the 50% cytotoxic concentration (CC50) at 24 h in data set [1] is above 39.8 µM. Further, the EC50 (in data set [2] (setting [4]); in the data set on HeLa-ACE2 cells) was above 9.61 µM throughout.

`c1ccc(C(c2ccccc2)N2CCN(c3nccc4ccncc34)CC2)cc1` [AA-649, 1-(4-benzhydrylpiperazin-1-yl)-2,7-naphthyridine] registered a CC50 at 24 h in data set [1] above 39.8 µM. Also, the half-maximal effective concentration (EC50) (in data set [2] (setting [4]); in the data set on HeLa-ACE2 cells) was above 9.61 µM in each case.

On to `O=C1Nc2ccccc2C(N2CCN(C(=O)c3cncc4cc[nH]c34)CC2)c2ccccc21` (stereo not shown) [NZ-815, 11-[4-(1H-pyrrolo[3,2-c]pyridine-7-carbonyl)piperazin-1-yl]-5,11-dihydrobenzo[c][1]benzazepin-6-one], for which the concentration for a half-maximal effect (EC50) in data set [2] (setting [5]) was 0.097 µM. For the same molecule, the concentration for half-maximal inhibition (IC50) in data set [3] (Table 2, read-out: Enzyme IC50) was 0.03 µM; in data set [3] (setting [6]) it was 0.03 µM.

On to `O=C(c1cncc2cc[nH]c12)N1CC2CCC(C1)N2C(c1cccc(F)c1)c1cccc(F)c1` [AA-663, [8-[bis(3-fluorophenyl)methyl]-3,8-diazabicyclo[3.2.1]octan-3-yl]-(1H-pyrrolo[3,2-c]pyridin-7-yl)methanone], for which the half-maximal effective concentration (EC50) in data set [2] (Severe acute respiratory syndrome coronavirus 2, HeLa, read-out: CoV-2 HeLa EC50, Table 3) came to 0.063 µM. In addition, the IC50 stood at 0.038 µM in data set [3] (Enzyme IC50, Table 2) and 0.014 µM in data set [3] (Enzyme IC50, Table 3, select example compounds against mpro).

Take `COc1cccc(C(c2ccccc2)N2CCN(C(=O)c3cncc(Cl)c3)CC2)c1` (stereo not shown) [MKP-1205, 1-(5-chloropyridine-3-carbonyl)-4-[(3-methoxyphenyl)(phenyl)methyl] piperazine]: the half-inhibitory concentration (IC50) in data set [3] (Table 2, read-out: Enzyme IC50) was determined as 0.55 µM.

Turning to `COc1cccc(C(c2ccccc2)N2CCN(C(=O)c3cccnc3)CC2)c1` (stereo not shown) [MKP-1203, 1-[(3-methoxyphenyl)(phenyl)methyl]-4-(pyridine-3-carbonyl)piperazine], in data set [3] (Table 2, read-out: Enzyme IC50), the IC50 worked out at 2.8 µM.

Consider `Cc1cncc(C(=O)C2CCN(C(c3ccccc3)c3ccccc3)CC2=O)c1` (stereo not shown) [PKJ-672, 1-benzhydryl-4-(5-methylnicotinoyl)piperidin-3-one], for which the IC50 in data set [3] (Table 2, read-out: Enzyme IC50) was 0.76 µM.

The values above are taken from patent US20250084091A1, “INHIBITORS OF SARS-COV-2” (The Texas A&M University System, priority 2021, published 2025).
